One data set can be described thus: clinical. Also noted: species or system women. The settings on record: female, human, in vivo. An excerpt: The effect on ovulation inhibition, serum drug concentrations and safety of a patch of the invention was investigated in a selected population of women. The study design was based on the requirements of the EMEA quideline for clinical studies with contraceptive steroids (Commitee for Proprietary Medicinal Products, CPMP/EWP 519/98).
Arcare MA-24A® is a polyisobutylene based adhesive from Adhesive Research.
The treatment phase includes a period of two menstrual cycles. The first treatment in the first cycle began one day after the volunteers started menstruating in this cycle by application of a patch. A total of three test patches were applied in intervals of 7 days between, such as application at days 1, 8 and 15 of the first cycle - each at different application sites- during each treatment cycle. Each patch was worn for 7 days, then replaced with a new patch to complete a total of 21 days of continuous use. This was followed by a 7-day treatment-free interval before the next treatment period started with a total of three patches applied, each applied with an interval of 7 days. If the patches were lost or became more than 40% detached, a new patch was applied.
The AUC was calculated according to the linear trapezoidal rule. […]
After incubation and centrifugation, the resultant precipitate was redissolved with NaOH. The assay has a lower limit of quantification of approx. 250 pg/ml.

The conditions of data set [1]: cited from earlier work.

`C#C[C@]1(O)CC[C@H]2[C@@H]3CCc4cc(O)ccc4[C@H]3CC[C@@]21C` [Ethinylestradiol] displayed a Cmax in the data set “clinical” (Cmax (mean) of ethinyl estradiol (EE)) of 0.0456 ng/mL. In addition, the Tmax in “clinical” (Tmax (mean) of ethinyl estradiol (EE)) is 48 h.

As to `C#C[C@]1(O)C=C[C@H]2[C@@H]3CCC4=CC(=O)CC[C@@H]4[C@H]3CC[C@@]21CC` [Gestodene, 13β-Ethyl-17α-ethynyl-17β-hydroxy-4,15-gonadien-3-one], the Maximal plasma levels entry in data set [1] (US 5,376,377, ethylene vinyl acrylate adhesive layer, Gestodene and ethinylestradiol) is reported as “about 0.8 ng/ml”. Moreover, in data set [1] (WO 92/07590, transdermal compositions with penetration enhancers, Gestodene and an estrogen), the “maximal plasma levels of Gestodene” value was “about 0.9 ng/ml”.

(Values after patent EP2138169B1, “Transdermal delivery system of hormones without penetration enhancers” (Bayer Intellectual Property GmbH, priority 2003, dated 2005).)
